# Experimental data published in patent US20250170140A1, “PHARMACEUTICAL COMPOSITION FOR PREVENTING OR TREATING CANCER COMPRISING CARNITINE ACYLCARNITINE CARRIER INHIBITOR AND PEROXISOMAL BETA OXIDATION INHIBITOR” (priority 2021, published 2025).
# Where two headings read alike, the source gives them in different places.
# Assays:
# Type in all cases: cell-based
# [1] = system: UACC-62 cells; assay: SRB assay, melanoma cell line UACC-62
# Description: (§1) As a comparison, omeprazole (KN510) and trimetazidine (KN713), a 3-ketoacyl CoA thiolase inhibitor, were co-treated. […] After cell inoculation, 96-well cell culture plates were incubated for 24 hours before the addition of experimental drugs. […] The cells were then incubated in a CO2 incubator for 48 hours, after which the assay was terminated by the addition of cold TCA. Cells were fixed in situ by gently adding 50 μl of cold 50% (w/v) TCA (final concentration: 10% TCA) and incubated at 4° C. for 60 min. The supernatant was discarded, and the plate was washed five times with distilled water and air dried. Sulforhodamine B (SRB) solution (100 μl) of 0.4% (w/v) in 1% acetic acid was added to each well, and the plate was left at room temperature for 10 min. After staining, unbound dye was removed by washing five times with 1% acetic acid, and the plate was air-dried. The bound dye was then solubilized with 10 mM trizma base, and the absorbance was recorded at 515 nm using an automated plate reader. […] The predicted synergistic activity of a combination of the present invention can be calculated using the Colby Equation in Equation 1 (S.R. Colby, Weeds, 1967, pp. 15, 20-22): In the present invention, the actual measure of anti-cancer activity of the combination treatment was the inhibition rate of cancer cell growth (%), and the predicted value (E) of the combination treatment was measured by substituting it into the above Colby Equation.
# [2] = system: MKN-28 cells; assay: SRB assay, stomach cancer cell line MKN-28
# Description: as §1
# [3] = system: SK-OV-3 cells; assay: SRB assay, ovarian cancer cells SK-OV-3
# Description: as §1
# [4] = system: MIA PaCa-2; assay: SRB assay, cancer cell growth, pancreatic cancer cell line MIA PaCa-2; details: for GI50: 48 hours, read-out: GI50 (Half maximal growth inhibition concentration)
# Description: as §1, with “20-22): α and β are the measured anti-cancer activity of each compound alone, and E is the predicted anti-cancer activity of a mixture of α and β as a prediction.” for “20-22):”
# [5] = system: H1975 cells; assay: SRB assay, lung cancer cells H1975
# Description: as §1
# [6] = Homo sapiens, KN714 5 μM, read-out: Inhibition rate of cancer cell growth (%) (Actual value)
# [7] = Homo sapiens, KN714 10 μM, read-out: Inhibition rate of cancer cell growth (%) (Actual value)
# [8] = MIA PaCa-2, Conc. 10^−5M, Table 1
# [9] = MIA PaCa-2, Conc. 10^−6M, Table 1
# [10] = MIA PaCa-2, Conc. 10^−7M, Table 1
# [11] = MIA PaCa-2, Conc. 10^−8M, Table 1
# [12] = Homo sapiens, KN510 100 μM, read-out: Inhibition rate of cancer cell growth (%) (Actual value)
# [13] = Homo sapiens, KN510 200 μM, read-out: Inhibition rate of cancer cell growth (%) (Actual value)
structure (smiles),measurement,setting,value
"CSc1ccc2c(c1)N(CCC1CCCCN1C)c1ccccc1S2 (centres unmarked) [KN714, 10-[2-(1-methyl-2-piperidyl)ethyl]-2-(methylthio)phenothiazine]",inhibition at 5 µM,[1]; [6],10.6%
same,inhibition at 10 µM,[1]; [7],60.5%
same,Cancer cell growth rate Average (%),[1]; KN714 5 μM,89.43%
same,Cancer cell growth rate Average (%),[1]; KN714 10 μM,39.54%
same,inhibition at 5 µM,[2]; [6],8.19%
same,inhibition at 10 µM,[2]; [7],64%
same,Cancer cell growth rate Average (%),[2]; KN714 5 μM,91.81%
same,Cancer cell growth rate Average (%),[2]; KN714 10 μM,36.04%
same,inhibition at 5 µM,[3]; [6],7.82%
same,inhibition at 10 µM,[3]; [7],37.6%
same,Cancer cell growth rate Average (%),[3]; KN714 5 μM,92.18%
same,Cancer cell growth rate Average (%),[3]; KN714 10 μM,62.36%
same,inhibition at 5 µM,"[4]; Homo sapiens, MIA PaCa-2, MIA PaCa-2 (Example 11), KN714 5 μM, read-out: Inhibition rate of cancer cell growth (%) (Actual value)",23.4%
same,inhibition at 10 µM,"[4]; Homo sapiens, MIA PaCa-2, MIA PaCa-2 (Example 11), KN714 10 μM, read-out: Inhibition rate of cancer cell growth (%) (Actual value)",106%
same,inhibition at 5 µM,"[4]; Homo sapiens, MIA PaCa-2, MIA PaCa-2, Example 1-3, Table 4, KN714 5 μM, read-out: Inhibition rate of cancer cell growth (%) (Actual value)",31.4%
same,inhibition at 10 µM,"[4]; Homo sapiens, MIA PaCa-2, MIA PaCa-2, Example 1-3, Table 4, KN714 10 μM, read-out: Inhibition rate of cancer cell growth (%) (Actual value)",105%
same,GI50,"[4]; Homo sapiens, MIA PaCa-2",1.9 µM
same,Cancer cell growth rate Average (%),"[4]; MIA PaCa-2 (Example 11), KN714 5 μM",76.62%
same,Cancer cell growth rate Average (%),"[4]; MIA PaCa-2 (Example 11), KN714 10 μM",−5.93%
same,Cancer cell growth rate Average (%),[4]; [8],−10.55%
same,Cancer cell growth rate Average (%),[4]; [9],94.73%
same,Cancer cell growth rate Average (%),[4]; [10],95.13%
same,Cancer cell growth rate Average (%),[4]; [11],90.56%
same,Cancer cell growth rate Average (%),"[4]; MIA PaCa-2, Conc. 10^−9M, Table 1",97.03%
same,Cancer cell growth rate Average (%),"[4]; MIA PaCa-2, Conc. 10^−10M, Table 1",97.11%
same,Cancer cell growth rate Average (%),"[4]; MIA PaCa-2, Example 1-2, Table 2, KN714 5 μM",68.62%
same,Cancer cell growth rate Average (%),"[4]; MIA PaCa-2, Example 1-2, Table 2, KN714 10 μM",−5.25%
same,inhibition at 5 µM,"[5]; Homo sapiens, NCI-H1975, KN714 5 μM, read-out: Inhibition rate of cancer cell growth (%) (Actual value)",-13.9%
same,inhibition at 10 µM,"[5]; Homo sapiens, NCI-H1975, KN714 10 μM, read-out: Inhibition rate of cancer cell growth (%) (Actual value)",8.1%
same,Cancer cell growth rate Average (%),[5]; KN714 5 μM,113.89%
same,Cancer cell growth rate Average (%),[5]; KN714 10 μM,91.90%
"COc1ccc2[nH]c([S+]([O-])Cc3ncc(C)c(OC)c3C)nc2c1 (centres unmarked) [KN510, omeprazole]",inhibition at 100 µM,[1]; [12],53.4%
same,inhibition at 200 µM,[1]; [13],96.4%
same,Cancer cell growth rate Average (%),[1]; KN510 100 μM,46.56%
same,Cancer cell growth rate Average (%),[1]; KN510 200 μM,3.59%
same,inhibition at 100 µM,[2]; [12],50.2%
same,inhibition at 200 µM,[2]; [13],74.8%
same,Cancer cell growth rate Average (%),[2]; KN510 100 μM,49.80%
same,Cancer cell growth rate Average (%),[2]; KN510 200 μM,25.20%
same,inhibition at 100 µM,[3]; [12],11.5%
same,inhibition at 200 µM,[3]; [13],59.8%
same,Cancer cell growth rate Average (%),[3]; KN510 100 μM,88.53%
same,Cancer cell growth rate Average (%),[3]; KN510 200 μM,40.18%
same,inhibition at 100 µM,"[4]; Homo sapiens, MIA PaCa-2, MIA PaCa-2 (Example 11), KN510 100 μM, read-out: Inhibition rate of cancer cell growth (%) (Actual value)",30.2%
same,inhibition at 200 µM,"[4]; Homo sapiens, MIA PaCa-2, MIA PaCa-2 (Example 11), KN510 200 μM, read-out: Inhibition rate of cancer cell growth (%) (Actual value)",78.2%
same,inhibition at 200 µM,"[4]; Homo sapiens, MIA PaCa-2, MIA PaCa-2, Example 1-3, Table 4, KN510 200 μM, read-out: Inhibition rate of cancer cell growth (%) (Actual value)",74.1%
same,GI50,"[4]; Homo sapiens, MIA PaCa-2",117 µM
same,Cancer cell growth rate Average (%),"[4]; MIA PaCa-2 (Example 11), KN510 100 μM",69.78%
same,Cancer cell growth rate Average (%),"[4]; MIA PaCa-2 (Example 11), KN510 200 μM",21.75%
same,Cancer cell growth rate Average (%),"[4]; MIA PaCa-2, Conc. 10^−3M, Table 1",−17.07%
same,Cancer cell growth rate Average (%),"[4]; MIA PaCa-2, Conc. 10^−4M, Table 1",68.78%
same,Cancer cell growth rate Average (%),[4]; [8],94.56%
same,Cancer cell growth rate Average (%),[4]; [9],93.66%
same,Cancer cell growth rate Average (%),[4]; [10],97.84%
same,Cancer cell growth rate Average (%),[4]; [11],101.17%
same,Cancer cell growth rate Average (%),"[4]; MIA PaCa-2, Example 1-2, Table 2, KN510 200 μM",25.89%
same,Cancer cell growth rate Average (%),"[4]; MIA PaCa-2, comparative example, Table 3, KN510 100 μM",69.73%
same,Cancer cell growth rate Average (%),"[4]; MIA PaCa-2, comparative example, Table 3, KN510 200 μM",35.32%
same,inhibition at 100 µM,"[5]; Homo sapiens, NCI-H1975, KN510 100 μM, read-out: Inhibition rate of cancer cell growth (%) (Actual value)",15.5%
same,inhibition at 200 µM,"[5]; Homo sapiens, NCI-H1975, KN510 200 μM, read-out: Inhibition rate of cancer cell growth (%) (Actual value)",56.8%
same,Cancer cell growth rate Average (%),[5]; KN510 100 μM,84.54%
same,Cancer cell growth rate Average (%),[5]; KN510 200 μM,43.18%
